The record followed here is ChEMBL document CHEMBL1139561, “Biaryl isoxazolinone antibacterial agents” (Bioorg Med Chem Lett, 2005).

In brackets after ≈: the same amount, converted by molar mass.

Data set [1] can be described thus: Area under curve concentration in mouse was determined. Type of data set: ADME. To be noted: in vivo.
Data set [2] relates to Staphylococcus aureus. Nature of the data set: Minimum inhibition concentration against Staphylococcus aureus strains in presence of 0.25% calf serum. Format: functional.
In the next data set the test system is Haemophilus influenzae. Nature of the data set: Minimum inhibition concentration against Haemophilus influenzae strains. Format: functional.
Data set [3] is described as follows: Maximum serum concentration in mouse was determined. Type of data set: ADME, organism-based.
Data set [4] in a line: Half life for compound in mouse was determined. The note with it: in vivo. Type of data set: ADME.
Data set [5] is described as follows: Protective dose against Staphylococcus aureus in mice after 8 days of oral b.i.d. administration at 1 and 5 hr per interval (n=10). Format: functional. To be noted: read-out: PD50.
Data set [6] has as its system Staphylococcus aureus. The data set is described as follows: Minimum inhibition concentration against Staphylococcus aureus strains in presence of 0.03% calf serum. Type of data set: functional.
For data set [7], the system named is Staphylococcus aureus. Nature of the data set: Minimum inhibition concentration against Staphylococcus aureus strains in presence of 8% calf serum. Type of data set: functional.
Data set [8] can be described thus: Minimum inhibition concentration against Haemophilus influenzae strains; range is 2-8 […]. Type of data set: functional.

What is called Cmax is the peak of the concentration-time curve. As usually defined, the half-life is how long it takes for the measured level to halve. The molecule `CC(=O)NCn1cc(-c2ccc(-c3cncnc3)cc2)c(=O)o1` registered an AUC in [1] of 29.1 µg/h/mL. The MIC in the data set on Staphylococcus aureus [2] is 0.25 µg/mL; in the data set with Haemophilus influenzae it was 4 µg/mL (≈ 12.9 µM). Moreover, the Cmax in data set [3] came out at 10400 ng/mL. In data set [4], this molecule yielded a half-life of 1.72 h. Further, in data set [5], the ED50 is greater than 14.1 mg/kg/day.
Consider `CC(=O)NCn1cc(-c2ccc(-c3ccsc3)cc2)c(=O)o1`, for which the MIC worked out at 4 µg/mL (≈ 12.7 µM) with Haemophilus influenzae and 0.03 µg/mL with Staphylococcus aureus [6].
In the case of `CC(=O)NCn1cc(-c2ccc(-c3cccs3)cc2)c(=O)o1`, the figures for the MIC (in the data set with Staphylococcus aureus [7]; in data set [8]) were 0.25 µg/mL and 2 µg/mL (≈ 6.36 µM), respectively.
